Assay results taken from US20250177362A1, “HETEROCYCLIC GLP-1 AGONISTS” (Gasherbrum Bio, Inc., priority 2022, published 2025).

biological target: T1, GLP-1 Receptor (Homo sapiens, UniProt P43220); test: GLP-1R agonist cAMP stimulation assay; assay type: cell-based; conditions: HEK293/CRE-Luc cell line stably expressing the GLP-1 Receptor; 30 min incubation; cAMP dynamic 2 Kit (Cisbio)
T1 construct: host or cells: HEK293/CRE-Luc (HEK293/GLPIR/CRE-LUC)
Procedure: Activation of GLP-1 receptor is known to stimulate cyclic AMP (cAMP) production in cells which indicates primary coupling to the Gas subunit of the G protein heterotrimeric complex.
To optimize functional activity directed toward Gas coupling, a HEK293/CRE-Luc cell line developed by HDB stably expressing the GLP-1 Receptor was used. 200× concentration of compound working solutions were prepared (Agilent Technologies Bravo) with ½ log serial dilution in 384-well Echo LDV plate (Labcyte, Cat #LP-0200). 50 nL/well 200× concentration of compound working solutions were moved to 384-well white low volume plate (Greiner, Cat #784075) using Labcyte ECHO550. 1×10^5 cells/mL HEK293/GLPIR/CRE-LUC (HD Biosciences) cell suspensions prepared with assay buffer [DPBS containing 0.5 mM IBMX (Sigma, Cat #15879) and 0.10% BSA (GENVIEW, Cat #FA016-100g)], 10 μL cell suspensions were added to each well of previous generated assay plate which already contains 50 nL compound at 200× concentration using ThermoFisher Multidrop Combi (1000 cells/well). Seal the plate and incubate at 37° C. with 5% CO2 for 30 min.
After incubation the cAMP assay signal was generated using cAMP dynamic 2 Kit (Cisbio). 5 μL cAMP-d2 working solution was added to each well, followed with 5 μL Anti-cAMP antibody-cryptate working solution added to each well using ThermoFisher Multidrop Combi. Incubate at room temperature for 1 hour protected from light. Read the fluorescence at 665 and 615 nm with Reader PerkinElmer EnVision.

T1 sequence (P43220 24-463, species assumed): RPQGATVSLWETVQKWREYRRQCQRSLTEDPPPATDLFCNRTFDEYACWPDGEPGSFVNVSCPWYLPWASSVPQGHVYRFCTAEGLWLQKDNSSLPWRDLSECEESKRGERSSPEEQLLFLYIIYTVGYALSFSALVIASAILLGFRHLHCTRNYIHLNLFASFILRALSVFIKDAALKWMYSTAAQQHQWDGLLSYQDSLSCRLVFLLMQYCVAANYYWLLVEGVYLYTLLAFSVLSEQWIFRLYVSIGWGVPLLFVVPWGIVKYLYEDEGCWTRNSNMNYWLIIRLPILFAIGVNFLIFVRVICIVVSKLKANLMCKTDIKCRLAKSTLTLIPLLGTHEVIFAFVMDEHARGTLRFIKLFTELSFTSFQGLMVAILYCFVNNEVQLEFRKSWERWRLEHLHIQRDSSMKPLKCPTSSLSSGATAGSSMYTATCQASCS

`CC1(C#N)CN(c2cc(-c3nnc(C(F)(F)F)[nH]3)cnc2CN2CCC(c3cccc4c3O[C@@](C)(c3ccc(Cl)cc3F)O4)CC2)C1` [F-18, (S)-1-(2-((4-(2-(4-chloro-2-fluorophenyl)-2-methylbenzo[d][1,3]dioxol-4-yl)piperidin-1-yl)methyl)-5-(5-(trifluoromethyl)-4H-1,2,4-triazol-3-yl)pyridin-3-yl)-3-methylazetidine-3-carbonitrile] and `C[C@]1(c2ccc(Cl)cc2F)Oc2cccc(C3CCN(Cc4ncc(-c5nnc(C(F)(F)F)[nH]5)cc4N4CCC(O)C4)CC3)c2O1` (stereo partly drawn) [F-7, 1-[2-({4-[(2S)-2-(4-chloro-2-fluorophenyl)-2-methyl-2H-1,3-benzodioxol-4-yl]piperidin-1-yl}methyl)-5-[5-(trifluoromethyl)-4H-1,2,4-triazol-3-yl]pyridin-3-yl]pyrrolidin-3-ol] fall in the same range of EC50: 1 to 100 nM for the first, 1 to 100 nM for the second.

`CC1CN(c2cc(-c3nnc(C(F)(F)F)[nH]3)nnc2CN2CCC(c3cccc4c3O[C@@](C)(c3ccc(Cl)cc3F)O4)CC2)CCO1` (stereo partly drawn) [F-17, 4-(3-((4-((S)-2-(4-chloro-2-fluorophenyl)-2-methylbenzo[d][1,3]dioxol-4-yl)piperidin-1-yl)methyl)-6-(5-(trifluoromethyl)-4H-1,2,4-triazol-3-yl)pyridazin-4-yl)-2-methylmorpholine] and `C[C@]1(c2ccc(Cl)cc2F)Oc2cccc(C3CCN(Cc4nnc(-c5nnc(C(F)(F)F)[nH]5)cc4N4CCOC5(CC5)C4)CC3)c2O1` [F-8, (S)-7-(3-((4-(2-(4-chloro-2-fluorophenyl)-2-methylbenzo[d][1,3]dioxol-4-yl)piperidin-1-yl)methyl)-6-(5-(trifluoromethyl)-4H-1,2,4-triazol-3-yl)pyridazin-4-yl)-4-oxa-7-azaspiro[2.5]octane] fall in the same range of EC50: 1 to 100 nM for the first, 1 to 100 nM for the second.

Compared with `CNC(=O)c1cnc(CN2CCC(c3cccc4c3O[C@@](C)(c3ccc(Cl)cc3F)O4)CC2)c(CC2(C#N)CC2)c1` [D-4], `COCCc1cc(-c2nnc(C(=O)O)[nH]2)cnc1CN1CCC(c2cccc3c2O[C@@](C)(c2ccc(Cl)cc2F)O3)CC1` [E-11] is higher in EC50: 1 to 100 nM for the first, > 100 nM for the second.

For `Cc1cc(-c2cnc(C(=O)O)s2)cnc1CN1CCC(c2cccc3c2OC(C)(c2ccc(Cl)cc2F)O3)CC1` (stereo not shown) [E-9], the EC50 was 1 to 100 nM.
